Assay results: ChEMBL document CHEMBL1158780, “Anti-Helicobacter pylori compounds from Santalum album” (2005)
In brackets after ≈: the same amount, converted by molar mass.

Tests used:
Assay type in all cases: functional
Helicobacter pylori [1] = test: Antimicrobial activity against Helicobacter pylori ATCC 43504 at 100 ug/disk after 4 days by disk diffusion method; conditions: ATCC 43504, 96 h, read-out: IZ
Helicobacter pylori [2] = test: Antimicrobial activity against Helicobacter pylori SS1 at 100 ug/disk after 4 days by disk diffusion method; conditions: SS1, 96 h, read-out: IZ
Helicobacter pylori [3] = test: Antimicrobial activity against Clarithromycin-resistant Helicobacter pylori TS648 after 4 days by twofold plate dilution method; conditions: 96 h
Helicobacter pylori [4] = test: Antimicrobial activity against Helicobacter pylori Sa-3 isolate after 4 days by twofold plate dilution method; conditions: 96 h
Helicobacter pylori [5] = test: Antimicrobial activity against Helicobacter pylori Sa-1 isolate after 4 days by twofold plate dilution method; conditions: 96 h
Helicobacter pylori [6] = test: Antimicrobial activity against Helicobacter pylori TPH30 after 4 days by twofold plate dilution method; conditions: 96 h
Helicobacter pylori [7] = test: Antimicrobial activity against Helicobacter pylori Sa-2 isolate after 4 days by twofold plate dilution method; conditions: 96 h
Helicobacter pylori [8] = test: Antimicrobial activity against Helicobacter pylori SS1 after 4 days by twofold plate dilution method; conditions: SS1, 96 h
Helicobacter pylori [9] = test: Antimicrobial activity against Helicobacter pylori ATCC 43504 after 4 days by twofold plate dilution method; conditions: ATCC 43504, 96 h
Helicobacter pylori [10] = test: Antimicrobial activity against Clarithromycin-resistant Helicobacter pylori TS281 after 4 days by twofold plate dilution method; conditions: 96 h
Helicobacter pylori [11] = test: Antimicrobial activity against Helicobacter pylori SS1 at 250 ng/disk after 4 days by disk diffusion method
Helicobacter pylori [12] = test: Antimicrobial activity against Helicobacter pylori ATCC 43504 at 250 ng/disk after 4 days by disk diffusion method

SMILES | zone of inhibition at 100 µg/disc (Helicobacter pylori [1]) | zone of inhibition at 100 µg/disc (Helicobacter pylori [2]) | MIC (Helicobacter pylori [3]) | MIC (Helicobacter pylori [4]) | MIC (Helicobacter pylori [5]) | MIC (Helicobacter pylori [6]) | MIC (Helicobacter pylori [7]) | MIC (Helicobacter pylori [8]) | MIC (Helicobacter pylori [9]) | MIC (Helicobacter pylori [10]) | inhibition zone (IZ) (Helicobacter pylori [11]) | inhibition zone (IZ) (Helicobacter pylori [12])
C/C(=C/CC[C@@]1(C)[C@H]2CC[C@]1(C)[C@H](O)C2)CO | 27.1 mm | 11.1 mm | – | – | – | – | – | – | – | – | – | –
C=C(CC/C=C(\C)CO)[C@@H]1CC=C(C)CC1 | 11.9 mm | 10.6 mm | 31.3 µg/mL (≈ 142 µM) | 31.3 µg/mL (≈ 142 µM) | 31.3 µg/mL (≈ 142 µM) | 62.5 µg/mL (≈ 284 µM) | 62.5 µg/mL (≈ 284 µM) | 125 µg/mL (≈ 567 µM) | 62.5 µg/mL (≈ 284 µM) | 62.5 µg/mL (≈ 284 µM) | – | –
C/C(=C/CC[C@]1(C)[C@H]2CC[C@]1(C)[C@@H](O)C2)CO | 28.9 mm | 22.8 mm | – | – | – | – | – | – | – | – | – | –
C=C1[C@H]2CC[C@H](C2)[C@]1(C)CCC=C(CO)CO | 21.1 mm | 10.4 mm | – | – | – | – | – | – | – | – | – | –
C/C(=C/CCC(C)(O)c1ccc(C)cc1)CO (stereo not drawn) | 24.9 mm | 11.2 mm | – | – | – | – | – | – | – | – | – | –
C=C(CC/C=C(/C)CO)[C@H]1CC[C@@](C)(O)CC1 | 8.9 mm | – | – | – | – | – | – | – | – | – | – | –
C=C1[C@H]2CC[C@H](C2)[C@@]1(C)CC/C=C(/C)CO | 27.2 mm | 13.5 mm | 7.8 µg/mL (≈ 35.4 µM) | 7.8 µg/mL (≈ 35.4 µM) | 7.8 µg/mL (≈ 35.4 µM) | 7.8 µg/mL (≈ 35.4 µM) | 7.8 µg/mL (≈ 35.4 µM) | 31.3 µg/mL (≈ 142 µM) | 7.8 µg/mL (≈ 35.4 µM) | 7.8 µg/mL (≈ 35.4 µM) | – | –
CC1(CCC=C(CO)CO)C2CC3C(C2)C31C (stereo not drawn) | 38.7 mm | 25.9 mm | – | – | – | – | – | – | – | – | – | –
C/C(=C/CC[C@@]1(C)C2CC[C@@](C)(C2)[C@@H]1O)CO | 27.6 mm | 15.5 mm | – | – | – | – | – | – | – | – | – | –
C/C(=C/CC[C@@]1(C)[C@@H]2CC[C@@H](C2)[C@@]1(C)O)CO | 20.1 mm | 16.8 mm | – | – | – | – | – | – | – | – | – | –
C/C(=C/CC[C@]1(C)C2C[C@@H]3[C@H](C2)C31C)CO | 21.6 mm | 11.5 mm | 7.8 µg/mL (≈ 35.4 µM) | 7.8 µg/mL (≈ 35.4 µM) | 7.8 µg/mL (≈ 35.4 µM) | 15.6 µg/mL (≈ 70.8 µM) | 31.3 µg/mL (≈ 142 µM) | 31.3 µg/mL (≈ 142 µM) | 15.6 µg/mL (≈ 70.8 µM) | 15.6 µg/mL (≈ 70.8 µM) | – | –
CC1(C)S[C@@H]2[C@H](NC(=O)[C@H](N)c3ccc(O)cc3)C(=O)N2[C@H]1C(=O)O [AMOXICILLIN] | – | – | 0.13 µg/mL (≈ 0.356 µM) | 0.25 µg/mL (≈ 0.684 µM) | 0.06 µg/mL (≈ 0.164 µM) | 0.25 µg/mL (≈ 0.684 µM) | 0.06 µg/mL (≈ 0.164 µM) | 0.25 µg/mL (≈ 0.684 µM) | 0.06 µg/mL (≈ 0.164 µM) | 0.5 µg/mL (≈ 1.37 µM) | 20.3 mm | 35.3 mm
CC[C@H]1OC(=O)[C@H](C)[C@@H](O[C@H]2C[C@@](C)(OC)[C@@H](O)[C@H](C)O2)[C@H](C)[C@@H](O[C@@H]2O[C@H](C)C[C@H](N(C)C)[C@H]2O)[C@](C)(OC)C[C@@H](C)C(=O)[C@H](C)[C@@H](O)[C@]1(C)O [CLARITHROMYCIN] | – | – | 2 µg/mL (≈ 2.67 µM) | ≤ 0.06 µg/mL | ≤ 0.06 µg/mL | ≤ 0.06 µg/mL | ≤ 0.06 µg/mL | ≤ 0.06 µg/mL | ≤ 0.06 µg/mL | 32 µg/mL (≈ 42.8 µM) | – | –
